Like-named read-outs stand apart in the source and are kept apart here.
What was measured:
CDK11 = molecular target: T1, CDK11 (Homo sapiens, UniProt Q9BWU1); test: KinomeScan; type: binding; conditions: read-out: % Control
T1 construct: purchased DiscoveRx (KinomeScan service)

NEK7 = molecular target: T2, NEK7 (Homo sapiens, UniProt Q8TDX7); test: KinomeScan; type: binding; conditions: read-out: % Control
T2 construct: purchased DiscoveRx

ERBB3 = molecular target: T3, ERBB3 (Homo sapiens, UniProt P21860); test: KinomeScan; type: binding; conditions: read-out: % Control
T3 construct: purchased DiscoveRx (Fremont, CA)

PIK3CA(M1043I) = molecular target: T4, PIK3CA(M1043I) (Homo sapiens, UniProt P42336, M1043I); test: KinomeScan; type: binding; conditions: read-out: % Control
T4 construct: purchased DiscoveRx (Fremont, CA)

KIT(V559D) = molecular target: T5, KIT(V559D) (Homo sapiens, UniProt P10721, V559D); test: KinomeScan; type: binding; conditions: read-out: % Control
T5 construct: purchased DiscoveRx

TRKA = molecular target: T6, TRKA (Homo sapiens, UniProt P04629); test: KinomeScan; type: binding; conditions: read-out: % Control
T6 construct: purchased DiscoveRx (Fremont, CA)

AKT1 = molecular target: T7, AKT1 (Homo sapiens, UniProt P31749); test: KinomeScan; type: binding; conditions: read-out: % Control
T7 construct: purchased DiscoveRx (Fremont, CA)

CXCR4 = molecular target: T8, CXCR4 (Homo sapiens, UniProt P61073); test: GPCR Profiler; type: cell-based
T8 construct: host or cells: Chem-1 cells with Gα15

CLK4 = CLK4 (Homo sapiens, UniProt Q9HAZ1); test: KinomeScan; type: binding; conditions: read-out: % Control
5-HT1A = molecular target: T9, 5-HT1A (Homo sapiens, UniProt P08908); test: GPCR Profiler; type: cell-based
T9 construct: host or cells: Chem-1 cells with promiscuous Gα15

CSNK1D = CSNK1D (Homo sapiens, UniProt P48730); test: KinomeScan; type: binding; conditions: read-out: % Control
EPHA3 = molecular target: T10, EPHA3 (Homo sapiens, UniProt P29320); test: KinomeScan; type: binding; conditions: read-out: % Control
T10 construct: purchased DiscoveRx (Fremont, CA)

PIP5K2C = molecular target: T11, PIP5K2C (Homo sapiens, UniProt Q8TBX8); test: KinomeScan; type: binding; conditions: read-out: % Control
T11 construct: purchased DiscoveRx (Fremont, CA)

[1] = molecular target: T12, ABL1(E255K)-phosphorylated (Homo sapiens, UniProt P00519, E255K); test: KinomeScan; type: binding; conditions: read-out: % Control
T12 construct: purchased DiscoveRx

[2] = molecular target: T13, TYK2(JH1domain-catalytic) (Homo sapiens, UniProt P29597); test: KinomeScan; type: binding; conditions: read-out: % Control
T13 construct: TYK2(JH1domain-catalytic); purchased DiscoveRx

NOP = molecular target: T14, NOP (Homo sapiens, UniProt P41146); test: GPCR Profiler; type: cell-based
T14 construct: host or cells: Chem-1 cells expressing Gα15

MAP3K15 = molecular target: T15, MAP3K15 (Homo sapiens, UniProt Q6ZN16); test: KinomeScan; type: binding; conditions: read-out: % Control
T15 construct: purchased DiscoveRx (Fremont, CA)

MERTK = molecular target: T16, MERTK (Homo sapiens, UniProt Q12866); test: KinomeScan; type: binding; conditions: read-out: % Control
T16 construct: purchased DiscoveRx (Fremont, CA)

PIK3CA(I800L) = molecular target: T17, PIK3CA(I800L) (Homo sapiens, UniProt P42336, I800L); test: KinomeScan; type: binding; conditions: read-out: % Control
T17 construct: purchased DiscoveRx (Fremont, CA)

KIT(D816V) = molecular target: T18, KIT(D816V) (Homo sapiens, UniProt P10721, D816V); test: KinomeScan; type: binding; conditions: read-out: % Control
T18 construct: purchased DiscoveRx

PC-3 = test: Cell Titer-Glo viability, Prostate adenocarcinoma; type: cell-based; conditions: for CC50: Homo sapiens, read-out: LC50 (the source's name)
Protocol: (§1) OGM2 kills wide variety of cancer cell types. Cell sensitivity can be classified in to Very Sensitive (LC50<2 μM), Sensitive (LC50=2 to 10 μM), Mildly Sensitive (LC50>10 μM), and Refractory (no killing at 10 μM). The listed established cell were incubated with OGM2 at 2 μM or 10 μM for 72 hours under standard cell culture conditions, and relative cell number was assessed using Cell Titer-Glo Luminescent Cell Viability Assay (Promega™) following the manufacturer's instructions. Luminescence was determined using a Cytation 5 reader and Gen5 software package (BioTek™).
(§2) Cancer cells, which are very sensitive to killing by OGM2 (LCs <2 μM), with reported mRNA expression of GPR68 and the related proton sensing receptor GPR4. LC50's (concentrations causing 50% lethality) were determined using CellTiter-Glo (Promega™, G7570). Cells were plated in 12-well plates (CELLTREAT Scientific Products, 229112) in 1 ml of DMEM with high glucose, GlutaMAX, HEPES, or RPMI 1640 with Penicillin-Streptomycin (ThermoFisher™, 10564029, 11875119 and 15140122) and 10% FBS. Cells were incubated overnight at 37° C. in 5% CO2. Then 1 mL of fresh media was added with DMSO, OGM, or positive control (Erastin; APExBIO Technology, LLC, B1524) and cells incubated for 3 days. On the third day, all media was removed, cells were rinsed with 1×PBS, PBS was removed, and 200 μL of 1× Passive Lysis Buffer (Promega™, E1941) was added to each well. […]. Subsequently, 20 μL of lysate was added to 100 μL CellTiter-Glo™ reagent on a LUMITRAC 200 plate (Greiner™ bio-one, 82050-726). Plates were briefly spun down and read on a GloMax-Multi Detection System (Promega™).
(§3) The cells listed in the tables above were incubated with OGM2 at 2 μM or 10 μM for 72 hours under standard cell culture conditions, and relative cell number was assessed using Cell Titer-Glo Luminescent Cell Viability Assay (Promega™) following the manufacturer's instructions. Luminescence was determined using a Cytation 5 reader and Gen5 software package (BioTek™). RNA expression of GPR68 and GPR4 in the corresponding cancer cell lines are listed, according to the publicly available The Human Protein Atlas version 22.0 and Ensembl version 103.38 (see proteinatlas.org). The consensus normalized expression value (“nTPM”=normalize transcript per million) was calculated as the maximum nTPM value for each gene in the two data sources.

DU 145 = test: Cell Titer-Glo viability, Prostate adenocarcinoma; type: cell-based; conditions: for CC50: Homo sapiens, read-out: LC50 (the source's name)
Protocol: as §1, §2, §3

T14 sequence (P41146 whole entry): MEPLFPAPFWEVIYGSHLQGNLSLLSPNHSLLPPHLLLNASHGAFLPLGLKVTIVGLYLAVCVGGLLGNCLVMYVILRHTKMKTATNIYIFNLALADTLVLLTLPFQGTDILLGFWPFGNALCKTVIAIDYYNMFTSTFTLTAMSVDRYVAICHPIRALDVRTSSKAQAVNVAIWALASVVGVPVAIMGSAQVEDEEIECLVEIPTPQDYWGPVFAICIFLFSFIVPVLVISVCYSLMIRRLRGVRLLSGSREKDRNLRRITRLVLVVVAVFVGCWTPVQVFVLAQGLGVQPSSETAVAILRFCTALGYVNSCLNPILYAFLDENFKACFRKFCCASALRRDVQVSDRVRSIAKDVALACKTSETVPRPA
T9 sequence (P08908 whole entry): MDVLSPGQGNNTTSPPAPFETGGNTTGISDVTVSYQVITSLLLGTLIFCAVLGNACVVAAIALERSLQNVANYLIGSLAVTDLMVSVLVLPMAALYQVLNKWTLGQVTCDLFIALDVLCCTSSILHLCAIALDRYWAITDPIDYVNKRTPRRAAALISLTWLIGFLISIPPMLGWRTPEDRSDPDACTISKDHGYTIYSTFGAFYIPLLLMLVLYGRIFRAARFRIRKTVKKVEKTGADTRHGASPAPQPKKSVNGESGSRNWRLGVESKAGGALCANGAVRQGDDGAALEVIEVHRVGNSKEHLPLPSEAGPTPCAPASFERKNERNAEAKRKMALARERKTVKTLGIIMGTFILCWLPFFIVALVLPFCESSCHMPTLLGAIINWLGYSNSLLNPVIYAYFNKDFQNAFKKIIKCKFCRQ
T8 sequence (P61073 whole entry, species assumed): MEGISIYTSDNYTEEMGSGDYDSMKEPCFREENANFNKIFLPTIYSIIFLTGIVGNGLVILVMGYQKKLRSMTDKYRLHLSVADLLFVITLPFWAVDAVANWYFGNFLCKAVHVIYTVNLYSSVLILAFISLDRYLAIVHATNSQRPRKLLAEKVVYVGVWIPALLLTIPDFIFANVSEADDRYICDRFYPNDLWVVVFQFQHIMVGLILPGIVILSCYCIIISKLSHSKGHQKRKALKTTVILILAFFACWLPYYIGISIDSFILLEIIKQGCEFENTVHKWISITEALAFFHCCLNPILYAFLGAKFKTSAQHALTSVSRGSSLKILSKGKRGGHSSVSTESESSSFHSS
T16 sequence (Q12866 21-999): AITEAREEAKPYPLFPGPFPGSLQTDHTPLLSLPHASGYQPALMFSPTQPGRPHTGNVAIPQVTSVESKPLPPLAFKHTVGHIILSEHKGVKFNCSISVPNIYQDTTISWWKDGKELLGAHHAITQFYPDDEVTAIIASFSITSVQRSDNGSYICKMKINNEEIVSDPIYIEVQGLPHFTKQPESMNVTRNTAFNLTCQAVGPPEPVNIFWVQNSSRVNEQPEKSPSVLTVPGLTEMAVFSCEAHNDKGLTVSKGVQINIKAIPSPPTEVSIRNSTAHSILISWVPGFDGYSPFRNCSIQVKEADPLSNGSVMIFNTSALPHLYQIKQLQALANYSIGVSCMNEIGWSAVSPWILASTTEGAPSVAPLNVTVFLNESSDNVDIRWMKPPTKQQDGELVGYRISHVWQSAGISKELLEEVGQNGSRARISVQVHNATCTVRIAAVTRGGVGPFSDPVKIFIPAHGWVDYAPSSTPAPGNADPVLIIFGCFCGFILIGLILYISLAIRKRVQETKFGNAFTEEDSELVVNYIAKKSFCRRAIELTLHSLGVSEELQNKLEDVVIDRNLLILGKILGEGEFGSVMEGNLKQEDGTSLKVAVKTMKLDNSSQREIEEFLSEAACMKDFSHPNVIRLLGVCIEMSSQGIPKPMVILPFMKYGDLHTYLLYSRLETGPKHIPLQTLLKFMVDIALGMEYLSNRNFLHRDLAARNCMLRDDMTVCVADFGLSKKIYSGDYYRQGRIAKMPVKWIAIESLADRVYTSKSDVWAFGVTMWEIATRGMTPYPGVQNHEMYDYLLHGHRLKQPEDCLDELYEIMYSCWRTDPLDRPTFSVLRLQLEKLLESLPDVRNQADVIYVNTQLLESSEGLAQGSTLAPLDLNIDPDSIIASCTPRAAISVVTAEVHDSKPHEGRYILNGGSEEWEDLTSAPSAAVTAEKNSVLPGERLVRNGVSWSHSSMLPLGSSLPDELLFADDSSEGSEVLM
T3 sequence (P21860 20-1342): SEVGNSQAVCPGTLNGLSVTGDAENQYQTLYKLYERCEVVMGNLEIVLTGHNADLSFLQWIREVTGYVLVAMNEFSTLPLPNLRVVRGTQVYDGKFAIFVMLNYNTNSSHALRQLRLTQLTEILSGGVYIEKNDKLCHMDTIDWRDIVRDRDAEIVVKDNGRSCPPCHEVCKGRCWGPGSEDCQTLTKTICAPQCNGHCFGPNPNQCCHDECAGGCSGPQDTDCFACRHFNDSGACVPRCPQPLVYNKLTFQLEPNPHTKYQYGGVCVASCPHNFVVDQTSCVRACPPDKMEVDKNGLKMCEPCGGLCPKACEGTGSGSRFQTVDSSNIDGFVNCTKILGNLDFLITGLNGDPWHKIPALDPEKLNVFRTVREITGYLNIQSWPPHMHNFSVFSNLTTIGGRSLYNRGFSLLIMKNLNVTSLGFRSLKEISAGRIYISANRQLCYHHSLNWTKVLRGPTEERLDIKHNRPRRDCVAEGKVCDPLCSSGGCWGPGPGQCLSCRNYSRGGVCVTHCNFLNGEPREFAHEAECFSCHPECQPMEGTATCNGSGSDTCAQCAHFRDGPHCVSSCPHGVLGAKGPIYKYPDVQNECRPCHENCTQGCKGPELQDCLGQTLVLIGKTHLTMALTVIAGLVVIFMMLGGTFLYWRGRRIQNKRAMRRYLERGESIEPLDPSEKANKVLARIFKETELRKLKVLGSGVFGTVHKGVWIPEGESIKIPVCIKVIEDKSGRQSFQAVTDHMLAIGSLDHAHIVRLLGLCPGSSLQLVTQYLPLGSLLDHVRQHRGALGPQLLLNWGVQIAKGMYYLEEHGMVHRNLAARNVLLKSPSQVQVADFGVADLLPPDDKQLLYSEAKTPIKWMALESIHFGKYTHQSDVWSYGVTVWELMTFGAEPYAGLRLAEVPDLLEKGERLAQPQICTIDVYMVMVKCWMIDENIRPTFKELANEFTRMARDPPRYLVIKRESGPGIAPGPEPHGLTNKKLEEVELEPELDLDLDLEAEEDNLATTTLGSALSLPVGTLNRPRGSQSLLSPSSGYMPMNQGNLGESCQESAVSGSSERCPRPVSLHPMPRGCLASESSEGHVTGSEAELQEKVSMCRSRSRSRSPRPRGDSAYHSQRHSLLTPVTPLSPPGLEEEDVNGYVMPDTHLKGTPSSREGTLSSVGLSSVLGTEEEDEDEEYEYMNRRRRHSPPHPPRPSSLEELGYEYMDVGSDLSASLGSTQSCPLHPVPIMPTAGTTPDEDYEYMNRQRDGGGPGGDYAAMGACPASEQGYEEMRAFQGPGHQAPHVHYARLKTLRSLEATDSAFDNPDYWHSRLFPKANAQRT
T15 sequence (Q6ZN16 whole entry): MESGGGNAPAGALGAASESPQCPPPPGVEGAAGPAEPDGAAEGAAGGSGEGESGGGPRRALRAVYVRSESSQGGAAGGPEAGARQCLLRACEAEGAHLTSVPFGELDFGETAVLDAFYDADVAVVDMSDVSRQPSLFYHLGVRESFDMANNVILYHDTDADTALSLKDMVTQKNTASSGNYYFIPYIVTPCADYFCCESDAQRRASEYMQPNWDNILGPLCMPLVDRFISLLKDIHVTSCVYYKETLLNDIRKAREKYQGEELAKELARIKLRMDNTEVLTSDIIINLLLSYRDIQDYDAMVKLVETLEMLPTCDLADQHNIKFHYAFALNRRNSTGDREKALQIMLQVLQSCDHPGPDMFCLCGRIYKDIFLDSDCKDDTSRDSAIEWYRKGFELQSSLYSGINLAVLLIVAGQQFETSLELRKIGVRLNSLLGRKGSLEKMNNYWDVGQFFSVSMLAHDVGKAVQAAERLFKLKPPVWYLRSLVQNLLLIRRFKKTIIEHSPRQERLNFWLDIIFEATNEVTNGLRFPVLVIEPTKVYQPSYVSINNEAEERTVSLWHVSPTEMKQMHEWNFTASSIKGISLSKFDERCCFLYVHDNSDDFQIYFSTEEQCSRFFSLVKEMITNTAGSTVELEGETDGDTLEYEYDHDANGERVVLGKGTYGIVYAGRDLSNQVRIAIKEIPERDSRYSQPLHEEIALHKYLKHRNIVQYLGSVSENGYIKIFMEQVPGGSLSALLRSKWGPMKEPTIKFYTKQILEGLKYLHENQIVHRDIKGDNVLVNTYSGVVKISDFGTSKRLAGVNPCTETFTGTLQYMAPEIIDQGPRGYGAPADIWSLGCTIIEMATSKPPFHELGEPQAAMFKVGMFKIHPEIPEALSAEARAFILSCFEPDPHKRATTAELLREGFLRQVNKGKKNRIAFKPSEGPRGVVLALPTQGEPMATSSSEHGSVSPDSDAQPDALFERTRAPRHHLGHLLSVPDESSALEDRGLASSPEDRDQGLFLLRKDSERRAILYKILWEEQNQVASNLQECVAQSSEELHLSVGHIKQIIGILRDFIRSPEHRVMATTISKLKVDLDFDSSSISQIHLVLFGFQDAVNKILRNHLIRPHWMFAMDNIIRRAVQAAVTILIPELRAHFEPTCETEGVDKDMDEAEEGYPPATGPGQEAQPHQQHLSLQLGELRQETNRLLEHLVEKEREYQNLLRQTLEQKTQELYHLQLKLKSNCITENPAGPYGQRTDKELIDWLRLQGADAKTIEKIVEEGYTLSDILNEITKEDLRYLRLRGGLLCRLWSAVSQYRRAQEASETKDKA
T13 sequence (P29597 897-1176 limits assumed): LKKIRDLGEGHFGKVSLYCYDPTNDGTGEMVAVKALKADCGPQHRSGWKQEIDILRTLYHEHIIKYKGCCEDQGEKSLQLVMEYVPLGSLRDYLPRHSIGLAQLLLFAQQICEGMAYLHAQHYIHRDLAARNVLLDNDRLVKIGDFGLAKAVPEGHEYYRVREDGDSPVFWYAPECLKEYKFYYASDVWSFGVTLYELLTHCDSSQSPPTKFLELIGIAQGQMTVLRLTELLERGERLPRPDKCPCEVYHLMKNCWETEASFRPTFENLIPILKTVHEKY

SMILES: CCc1ccc2c(c1)C1(NN=C(c3cccc4ccccc34)S1)C(=O)N2 (stereo not shown) [OGM1, 5-ethyl-5′-naphthalen-1-ylspiro[1H-indole-3,2′-3H-1,3,4-thiadiazole]-2-one]
- remaining binding at 10 µM (CDK11): 100%
- remaining binding at 10 µM (NEK7): 100%
- remaining binding at 10 µM (ERBB3): 84%
- remaining binding at 10 µM (PIK3CA(M1043I)): 59%
- remaining binding at 10 µM (KIT(V559D)): 71%
- remaining binding at 10 µM (TRKA): 81%
- remaining binding at 10 µM (AKT1): 78%
- Antagonism (CXCR4; 10 uM): −6.9
- Agonism (CXCR4; 12.5 uM): 1.5
- remaining binding at 10 µM (CLK4): 88%
- Antagonism (5-HT1A; 10 uM): −7.5
- Agonism (5-HT1A; 12.5 uM): −0.8
- remaining binding at 10 µM (CSNK1D): 100%
- remaining binding at 10 µM (EPHA3): 78%
- remaining binding at 10 µM (PIP5K2C): 100%
- remaining binding at 10 µM [1]: 77%
- remaining binding at 10 µM [2]: 77%
- Antagonism (NOP; 10 uM): −1.9
- Agonism (NOP; 12.5 uM): 0.2
- remaining binding at 10 µM (MAP3K15): 100%
- remaining binding at 10 µM (MERTK): 80%
- remaining binding at 10 µM (PIK3CA(I800L)): 100%
- remaining binding at 10 µM (KIT(D816V)): 100%

SMILES: CCc1ccc2c(c1)C1(NN=C(c3ccccc3)S1)C(=O)N2 (stereo not shown) [OGM2]
- Class (PC-3): Mildly
- % Survival 2 μM OGM (PC-3; 72 hours): 101.3%
- % Survival 10 μM OGM (PC-3; 72 hours): 74.5%
- CC50 (PC-3; PC-3, 72 hours): > 10 µM
- CC50 (PC-3; PC-3 cells, concentration causing 50% lethality): > 10 µM
- % Survival 2 μM OGM (PC-3; PC-3 cells, 2 μM, 72 hours, Cell Titer-Glo): 101.3%
- % Survival 10 μM OGM (PC-3; PC-3 cells, 10 μM, 72 hours, Cell Titer-Glo): 74.5%
- Class (PC-3; Table 13): Low
- % Survival 2 μM OGM (DU 145; 72 hours): 44.2%
- % Survival 10 μM OGM (DU 145; 72 hours): 22.2%
- % Survival 2 μM OGM (DU 145; DU 145 cells, 2 μM, 72 hours, Cell Titer-Glo): 44.2%
- % Survival 10 μM OGM (DU 145; DU 145 cells, 10 μM, 72 hours, Cell Titer-Glo): 22.2%
- CC50 (DU 145; DU-145, 72 hours): < 2000 nM
- CC50 (DU 145; DU 145 cells, concentration causing 50% lethality): < 2000 nM
